Where “and” joins values, the source holds several entries; their conditions need not be identical. Equal entries are not always repeated.

Data set [1] relates to PMNs. Briefly: Heme protein effect on DCFH oxidation in unstimulated, LPS and TNFα-, and PMA-stimulated PMNs, with or without NOS inhibitors, SOD or antioxidants. It is filed as cell-based, human. The note with it: PMA-stimulated PMNs with arginine. The protocol:
DCFH-loaded PMNs were incubated with and without N-methyl-L-arginine (L-NMMA; 5 mM; Calbiochem, San Diego, Calif.) and heme proteins (0.3-1000 μg/mL) at 37 ° C. for 10 minutes. […] In unstimulated and LPS and TNFα -stimulated PMNs, the treatments were oxyMb, or oxyMb+L-NMMA (5 mM). […] RBC cell membranes were ruptured using a micro-ultrasonic cell disrupter, Kontes, Janke and Kukel Gmbh and CO. (Stauten, Germany). […] OxyMb was prepared by mixing excess sodium dithionite with Mb for 1 h and inorganic sulfur compounds were removed by dialyzing in HBSS buffer for 3 h. Percent iron in the ferric state in non-dithionite treated oxyMb or oxyHb was not assessed. […] […] cross-linked Hb was a gift from Walter Reed Army Institute of Research. […] Also, various concentrations of bovine liver Cu, Zn SOD (30-10,000 U/mL; 8-2640 μg/mL) and 30 μg/mL oxyMb were incubated with PMA-stimulated PMNs pretreated with and without L-NMMA. Flow cytometric measurements of oxidant-induced DCF fluorescence were performed as described above.

Data set [2] concerns PMNs. The data set can be described thus: Propidium iodide staining of oxidant-treated PMNs (cell membrane integrity). The note with it: oxidant levels ≧10^−7 M.
Data set [3] relates to PMNs. The note with it: for decrease in DCFH oxidation: 10^−4 M oxidant; for increase in DCFH oxidation over control levels: 10^−5 M oxidant, 30 min.
The subject of data set [4] is PMNs. The data set can be described thus: Intracellular oxidants (DCF) in PMNs activated with cytokine cocktail and hemoglobin. The note with it: for effect on oxidants in PMNs: cytokine and hemoglobin activated PMNs. Format: cell-based, human. The protocol:
(§1) PMNs and MNCs were harvested from blood via centrifugation with equal volumes of Polymorphprep, GIBCO (Grand Island, N.Y.) at 550×g for 35 minutes at 20° C. […] Replicate experiments were conducted with three to five donors from a pool of six consented male adults.
(§2) PMNs (10,000,000/ml) and MNCs (20,000,000/ml) were loaded with 2,7-dichlorodihydrofluorescein-diacetate (DCFH-DA) (2 μM) (Molecular Probes; Eugene Oreg.) in HBSS for 30 minutes at 37° C. in a water bath. Non fluorescent DCFH is oxidized to fluorescent DCF by a variety of oxidants. The approach is sensitive, reproducible, and capable of measuring wide concentration range of intracellular oxidants. […] Treated PMNs or MNCs were incubated for 1 or 5 h in HBSS amended with physiological concentrations of Ca^2+ (1.5 mM), Mg^2+ (900 μM), glutamine (1.0 mM); GIBCO; Grand Island, N.Y.), arginine (100 μM), amino acids (1×MEM)(GIBCO; Grand Island, N.Y.), and tetrahydrobiopterin (1.0 μM). Flow cytometric analyses were performed with an argon laser (488 nm) and emission light measured behind a filter transmitting 530/30 nm light on a FACCalibur, Becton Dickinson (San Jose, Calif.) with CELLQuest data acquisition and analysis software. PMNs or MNCs were gated by forward- and side-scatter. For each sample, 10,000 PMNs or MNCs were collected.
(§3) Statistical Analyses Intracellular oxidants in activated MNCs or PMNs treated with the three highest steroid concentrations or the L-NMMA treatment were compared to untreated activated MNCs or PMNs by Bonferroni corrected t-test.

Another data set has as its system MNCs. The data set can be described thus: Intracellular oxidants (DCF) in MNCs activated with cytokine cocktail and hemoglobin. Format: cell-based, human. The note with it: for dampening effect on oxidant production: cytokine and hemoglobin activation, 10 μM steroid. How it is done:
as §1, §2, §3

A further data set relates to lymphocytes. The data set can be described thus: HE effect on lymphocyte membrane integrity in mixed PMN/lymphocyte preparation (propidium iodide).
Data set [5] relates to PMNs. Briefly: HE-induced DNA strand breaks in PMNs (dUTP nick end labeling). Particulars: for effect on HE-induced DNA strand breaks: at HE-induced peak values (3-6 nM). Format: cell-based, human. The protocol:
HE-induced DNA strand breaks in PMNs were measured by flow cytometry using the tdt-mediated dUTP nick end labeling assay, In Situ Cell Death Detection Kit (Boehringer Mannheim, Indianapolis, Ind.) according to manufacturer's instructions. PMNs were incubated with L-NMMA, 17β-E2 receptor antagonists, TNFα, and varying concentrations of HE as described in the above HE-induced DCFH oxidation experiments with the exception that HE incubation time was 2 h instead of 40 min.
In Vitro measurements of oxidant production and cellular damage.

In data set [6] the test system is PMNs. Briefly: HE and 17β-E2 effects on intracellular oxidants (NO) in PMNs, DCFH oxidation. Format: cell-based, human. The note with it: for effect on HE-induced intracellular oxidants (NO): ICI 182,780 0.1 nM.
Experimental: HE effects on intracellular levels of oxidants in PMNs were measured using a previously reported cytofluorometric procedure.
(§4) The purity of PMNs and lymphocytes was greater than 88% and 95%, respectively, and their viability, as determined by trypan blue-exclusion, was greater than 90%.
Data set [7] is described as follows: Organochlorine insecticide levels in serum of burn patients. Format: in vivo, human. Particulars: for mean peak serum levels: nonsurviving burn patients; for mean peak serum levels / mean peak serum levels higher than in surviving patients: PBD5; for mean peak serum levels higher than in surviving patients: nonsurviving patients. The protocol: Patients and Subjects. Analyses of xenoestrogens in archived serum were performed on samples from seven nonsurviving males and seven age- and burn-size matched surviving male burn patients admitted between 1991 and 1994 to the United States Army Institute of Surgical Research burn care facility. The criteria for selection of subjects were age (approximately 40-70 years), total burn surface area (≧25%), postburn survival (≧7 days) and lack of preburn disease. Inhalation injury was present in 6 of 7 surviving and 5 of 7 nonsurviving patients. In the non-surviving group, two patients died between postburn day (PBD) 7 and 11. Age-matched healthy males (n=12) were used as control subjects.
Levels of insecticides in serum of burn patients on postburn day (PBD) 1, 3, 5, 7, and 11 were determined in accordance with a previously reported method25. This method used a Dynamic Thermal Stripper (Environchem, Kemblesville, Pa.) to sparge insecticides from 50 μl of serum. The insecticides were collected on Tenax solid sorbent and subsequently thermally desorbed with a Unacon 810 (Environchem, Kemblesville, Pa.) into a HP 5890 gas chromatograph (Hewlett Packard, Palo Alto, Calif.) equipped with a SPB-608 30 M, fused silica capillary column (J & W Scientific, Folsom, Calif.) and an electron capture detector. Levels of insecticides in serum stored at −75° C. were determined by comparing responses to standard curves constructed from certified standards (Ultra Scientific, Kingstown, R.I.) spiked into a composite sample consisting of serum from 3 subjects, previously determined to have low levels of each insecticide. For consistency, each patient's samples were analyzed during the same day by postburn day (PBD 1, 3, 7, and 11). The detection limit for HE and OC was 76 and 56 pg/mL, respectively. A reference serum sample pooled from 3 patients having medium levels of each insecticide was measured 1-2 times during each day of analyses. […] Serum cholesterol and triglyceride concentrations were determined using Instrumentation Laboratory reagents and analyzed on a Monarch Clinical Chemistry System (Instrumentation Laboratories, Inc., Lexington, Mass.).

Data set [8] relates to PMNs. Briefly: Heme protein effect on DCFH oxidation in unstimulated, LPS and TNFα-, and PMA-stimulated PMNs, with or without NOS inhibitors, SOD or antioxidants. It is filed as cell-based, human. Particulars: PMA-stimulated PMNs; L-NMMA 5 mM, L-NIO 5 mM, glutathione 25 μM and ascorbate 25 μM, human SOD 300 U/mL.
Setting [9] is: TNFα 10 ng/mL added to HE-treated PMNs.

Experimental for lymphocytes: HE effects on surrounding lymphocyte membrane integrity mediated by PMN-derived NO were determined by cytofluorometric measurements of intracellular propidium iodide levels in a mixed PMN/lymphocyte preparation using 100,000 lymphocytes and PMN/lymphocyte ratios of 0/1, 2/1, 4/1, 10/1). For comparison some aliquots of PMNs were loaded with L-NMMA (5 mM) or 2-(4-carboxyphenyl)-4,4,5,5-tetramethyl imidazoline-1-oxyl-3-oxide (carboxy-PTIO) (5 mM) (Calbiochem, La Jolla, Calif.), a NO scavenger, prior to incubating leukocytes with HE (1 nM) for 40 min.
as §4

On to `O.O.O.O.[Cl][Fe][Cl]` [FeCl2.4H2O, reference compound], for which, in the data set on PMNs [1], the “effect on DCFH oxidation” value is on record as “produced a decrease in DCFH oxidation above 30 μg/mL”.
Take `OO` [H2O2, hydrogen peroxide]: the “PMNs staining positive for propidium iodide” value in the data set with PMNs [2] worked out at 87%. Moreover, in the data set with PMNs [3], the “decrease in DCFH oxidation” value is given as “approximately 25%” and the “increase in DCFH oxidation over control levels” value was determined as 25 fold.
On to `C[C@]12CC[C@@H]3c4ccc(O)cc4CC[C@H]3[C@@H]1CC[C@@H]2O` [17β-E2, 17β-estradiol], for which the “effect on oxidants in PMNs” value in the data set on PMNs [4] is reported as “no effect on oxidants”. Besides, the “dampening effect on oxidant production” value with MNCs (MNCs, after 1 h) worked out at 65%.
On to `CC1(C)N([O])C(c2ccc(C(=O)O)cc2)=[N+]([O-])C1(C)C` [PTIO, 2-(4-carboxyphenyl)-4,4,5,5-tetramethyl imidazoline-1-oxyl-3-oxide, reference compound], for which, in the data set on lymphocytes (co-incubation with HE 1 nM), the “effect on HE-induced cell membrane damage in lymphocytes” value is “attenuated the HE-induced cell membrane damage in the lymphocytes”.
As to `C[C@]12CC[C@@H]3c4ccc(O)cc4C[C@@H](CCCCCCCCC[S+]([O-])CCCC(F)(F)C(F)(F)F)[C@H]3[C@@H]1CC[C@@H]2O` (stereo partly drawn) [ICI 182,780, reference compound], the “effect on HE-induced DNA strand breaks” value with PMNs [5] was “nonsignificant trend for attenuating HE-induced DNA strand breaks”. Further, the “effect on HE-induced intracellular oxidants (NO)” value in the data set with PMNs [6] (L-NMMA 5 mM, tamoxifen 200 nM) was “completely eliminated the HE-induced increase in NO”.
In the case of `C[C@]12CCC(=O)C=C1CC[C@@H]1[C@@H]2[C@@H](O)C[C@@]2(C)[C@H]1CC[C@]2(O)C(=O)CO` [cortisol], in the data set on PMNs [4], the “effect on oxidants in PMNs” value is listed as “modest trend for reducing oxidant levels after 5 h”. Moreover, the “time dependence of oxidant reduction in MNCs” value in the data set with MNCs (5 h versus 1 h of stimulation) is “reduced oxidant levels in MNCs to a greater extent after 5 h as compared to 1 h of stimulation”. Also, the “dampening effect on oxidant production” value in the data set on MNCs (MNCs, after 1 h) came to 20%.
With `CCN(CC)/[N+]([O-])=N/O.CCNCC` [DEANO, diethylamine nitric oxide], the “PMNs staining positive for propidium iodide” value in the data set on PMNs [2] is reported as 87%. Also, in the data set with PMNs [3], the “decrease in DCFH oxidation” value is “approximately 25%” and the “increase in DCFH oxidation over control levels” value was 25 fold.
As to TNFα, in the data set with PMNs [5] (TNFα added to HE), the “increase in amplitude of HE DNA strand break Gaussian curve” value was 445% and the “left shift of HE DNA strand break Gaussian curve” value is reported as 10 fold. Besides, in the data set on PMNs [6] (setting [9]), the “increase in amplitude of HE intracellular oxidant Gaussian curve” value is reported as 60% and the “left shift of HE intracellular oxidant Gaussian curve” value is listed as 10 fold.
Take `ClC(Cl)=C(c1ccc(Cl)cc1)c1ccc(Cl)cc1` [DDE]: in data set [7] (nonsurvivors, by PBD 11), the “increase of mean serum level” value is recorded as 2.5 times; the mean serum level is 3667 pg/mL and 183 nM.
Turning to “hemoglobin: human hemoglobin (100 μg/mL)”, the “increase of mean oxidized DCF over unstimulated background” value in the data set with PMNs [4] (PMNs, after 1 h, data not shown) is listed as 172%; in the data set on MNCs (MNCs, after 1 h, data not shown) it was 41%. Besides, the “increase of mean intracellular oxidized DCF over unstimulated background” value in the data set on PMNs [4] (PMNs, after 5 h) is reported as 197%; with MNCs (MNCs, after 5 h), 259%.
Regarding `ClC1=C(Cl)[C@]2(Cl)[C@H]3[C@H]([C@H](Cl)[C@]4(Cl)O[C@H]34)[C@@]1(Cl)C2(Cl)Cl` [OC], in data set [7], the “mean peak serum levels” value was 677 pg/ml and 1.59 nM; the “mean peak serum levels higher than in surviving patients” value was “approximately 90%”.
In the case of oxyhemoglobin [oxyHb], the “less efficient than oxyMb in inducing DCFH oxidation” value in the data set with PMNs [1] is 20-40%.
As for `ClC1=C(Cl)C2(Cl)C3C4OC4C(Cl)C3C1(Cl)C2(Cl)Cl` (stereo not drawn) [HE], in the data set with PMNs [5] (2 h incubation), the “HE concentration of peak response of DNA strand breaks, Gaussian curve” value is “approximately 5 nM”. In addition, the “HE concentration of peak response of DNA strand breaks, with TNFα” value in the data set with PMNs [5] (co-incubation with TNFα) is “approximately 0.3 nM”. Further, the “HE concentration of peak response of intracellular oxidants, with TNFα” value with PMNs [6] (co-incubation with TNFα 10 ng/mL) is “approximately 0.1 nM”. In addition, the “effect on cell membrane damage in lymphocytes” value in the data set on lymphocytes (HE 1 nM, PMN/lymphocyte ratios above 2) is on record as “increased cell membrane damage in the lymphocytes”. Moreover, in [7], the “mean peak serum levels” value was 215 pg/ml and 0.55 nM; the “mean peak serum levels higher than in surviving patients” value is on record as “approximately 90%”.
Take `CC/C(=C(\c1ccccc1)c1ccc(OCCN(C)C)cc1)c1ccccc1` [tamoxifen, reference compound]: in the data set on PMNs [5], the “effect on HE-induced DNA strand breaks” value was “nonsignificant trend for attenuating HE-induced DNA strand breaks”. In the data set on PMNs [6] (L-NMMA 5 mM, tamoxifen 200 nM), the “effect on 17β-E2-induced intracellular oxidants (NO)” value is reported as “completely inhibited the 17β-E2-induced NO levels” and the “effect on HE-induced intracellular oxidants (NO)” value is listed as “completely eliminated the HE-induced increase in NO”.
Turning to “human erythrocyte Cu, Zn SOD: superoxide scavenger, superoxide dismutase from human erythrocytes”, in the data set on PMNs [8], the “effect on oxyMb-induced DCFH oxidation” value is “increased oxyMb induced-DCFH oxidation”.
With `CC(=O)[C@H]1CC[C@H]2[C@@H]3CCC4=CC(=O)CC[C@]4(C)[C@H]3CC[C@]12C` [P4, progesterone], the “effect on oxidants in PMNs” value in the data set with PMNs [4] is on record as “no effect on oxidants”. Further, the “dampening effect on oxidant production” value in the data set on MNCs (MNCs, after 1 h) came out at 0%.
On to `CC(=N)NCCCC[C@H](N)C(=O)O` [L-NIL, L-N^6-(-1-Iminoethyl)lysine], for which the “effect on oxidants in activated PMNs” value in the data set with PMNs [4] (L-NIL 10 μM) was “negligible effects on activated MNCs and PMNs”. The “effect on oxidants in activated MNCs” value in the data set on MNCs (L-NIL 10 μM) was “negligible effects on activated MNCs and PMNs”.

For the origin of these results see US20030118983A1, “Rapid screening procedure for inflammation mediators” (priority 2000, published 2003).
